Assays:
[1] = target: Rev27 (synthetic Rev34-50 RNA-binding peptide with flanking Ala and N-terminal Cys) (Human immunodeficiency virus 1) (UniProt P04618); assay: SPR; conditions: pH 7.4, 10 mM HEPES, 150 mM NaCl, 150 mM Na2SO4, 3.4 mM EDTA, 5 mM DTT, 10 C; 1:1; FIG. 7 legend gives 200 nM; Kd <10 nM at 5 C in 300 mM NaCl without sulfate
[2] = NMR dilution experiments of 1:1 salt complexes in DMSO-d6 (phosphodiester recognition); assay type: binding
Procedure: (§1) [a] NMR dilution experiments with the preformed 1:1 salt complexes were performed in DMSO-d6 at […]; [b] calculated maximum shift at full complexation in ppm.
(§2) In order to determine binding constants we prepared defined 1:1 salt complexes and measured their dissociation upon stepwise dilution in [D6 ]DMSO by following the shifts of NH and OH resonances. The chemical shift values of the totally uncomplexed state (o) and the fully complexed state (n) and the stability constant Ka were subsequently determined by curve fitting. […] In all cases, data could be fitted to a 1:1 binding isotherm. […] This order mirrors the order of binding affinities and is consistent with the interpretation that differential involvement of the hydroxyl group in hydrogen bonding provides for the energetic differences in complexation.

[3] = NMR dilution experiments with chloride counterion in DMSO-d6; assay type: binding
Procedure: as §1, §2

[4] = 13C-NMR titration of neamine with sodium sulfate in water; assay type: binding; conditions: pH 3.5
Description: FIGS. 4A-4D illustrate the titration of neamine (12) with sodium sulfate at pH 3.5: (A) Titration curve for C1'. (B) Job plot; x=% complex formation. (C) Structure of neamine indicating the sites of maximum observed shift. (D) Maximum observed shift.
(§3) To investigate whether 1,3-hydroxyamine substructures may be involved in binding in aqueous solution, we turned our attention to neamine (12; FIG. 4), a pseudodisaccharide substructure commonly found in a wide range of aminoglycoside antibiotics. […] These weak forces may, however, be enhanced by increasing the charge of the interacting species. In fact, many recognition events involving nucleic acids--including those by aminoglycosides--are likely to have a strong contribution from their polyionic character. We therefore turned our attention to sulfate, as it is a tetrahedral oxyanion similar to phosphate and its double negative charge mimics the effect of a polyanion. Furthermore, it has a defined ionization state. Since the spectra of aminoglycosides are highly dependent on pH, and even minor pH changes can outweigh any small complexation induced shifts, we performed binding studies at low pH, where neamine is fully protonated. […] Analysis of ^13 C-NMR spectra provided a clearer picture (FIG. 4). […] Thus, the selectivity found in aqueous solution is in full agreement with the order of binding affinities determined in the model compounds.

[5] = NMR binding study with dimethylphosphate in water; conditions: concentration ranges accessible by NMR
Description: as §3

[6] = target: AS-wt; assay: SPR binding of aminoglycosides to decoding region A-site model AS-wt; design: species or system E. coli
Procedure: The RNA binding properties of 100-800 were analyzed using a surface plasmon resonance based assay that was recently developed in these laboratories. This assay allows the determination of both affinity and specificity of small molecule-RNA interactions. For the analysis, the compounds were injected over a matrix containing RNA that was immobilized through a biotin tag and the equilibrium binding values were recorded at various concentrations.
Non-linear curve fitting was then used to determine the values of the dissociation constants (KD). The specificity of binding, i.e. the ability to discriminate between different RNA sequences was evaluated by comparing the binding to the target sequence (AS-wt) and the negative control (AS-U1495A). The ratio of KD(AS-U1495A) to KD(AS-wt) was taken to be a representation of the specificity of the binding event.
For the quantitative measurement of aminoglycoside binding to these sequences, we utilized our recently developed SPR-based assay. Biotinylated derivatives of all sequences were prepared by in vitro transcription in the presence of guanosine 5'-monophosphorothioate followed by alkylation with a biotin iodoacetamide derivative. The RNA conjugates were then immobilized onto streptavidin coated SPR-sensorchips for analysis.
In the same manner as illustrated for paromomycin, a panel of aminoglycosides was screened and the results are compiled in the table of FIGS. 46 and 47. In addition to the naturally occuring aminoglycoside antibiotics, some of the compounds in FIG. 46 are synthetically derived, unnatural aminoglycosides. The number of independent determinations for each dissociation constant ranged from 1-3. […] All data were recorded under near physiological salt conditions (HBS-buffer: 150 mM NaCl, 10 mM HEPES, pH7.4, 3.4 mM EDTA) unless noted otherwise. Data points were taken at concentrations ranging from […]. Below this concentration range, surface transport limitations prevent the attainment of equilibrium.
Plasmon resonance and antimicrobial testing for Example 4. Synthesis of the biotinylated RNA and surface plasmon resonance detected binding experiments were performed as described vida supra. Solution conditions: 150 mM NaCl, 10 mM HEPES (pH 7.4), 3.4 mM EDTA. KD determination from the binding curves.
The fitting routine of the program kaleidagraph was used for all calculations. The starting values for a and b were set to 1 and 0 respectively. The number of KD values used in the fitting was adjusted depending on the observed range of equivalents bound but generally varied from 3 to 4.
General Procedures for SPR Binding Studies done in Example 5. Samples were prepared by serial dilutions from stock solutions in RNase free microfuge tubes (Ambion) and were centrifuged at 14000 rpm for degassing. Unless otherwise noted, all binding studies were carried out using HBS buffer (Pharmacia Biosensor AB) which was used as obtained. All procedures for binding studies were automated as methods using repetitive cycles of sample injection and regeneration. Typically, buffer was injected in the first two cycles to establish a stable baseline value. Samples were injected at a flowrate of […] using either the KINJECT command. All aminoglycoside samples were injected from autoclaved 7 mm plastic vials that were capped with pierceable plastic crimp caps. To minimize carry over, samples were injected in order of increasing concentration. The running buffer was identical to the injection buffer. Expected values for the equilibrium response of one equivalent of analyte were calculated from the relative molecular weight of the analyte and the immobilized RNA ligand in each flowcells and adjusted with a correction factor of 0.76 which arises from the different molar refractive indices of RNA and the analyte. […]

[7] = tested on: Escherichia coli (ATCC 25922); assay: minimum inhibitory concentration, broth dilution technique; assay type: cell-based; conditions: E. coli, liquid culture
Description: We reasoned that this modification would provide the cleanest test for probing the ionic contribution, since hydrogen bond donor abilities, electronegativity and steric demand are similar for both functional groups. In order to learn how well the model system correlates with in vivo activity, we checked the new compounds for antibacterial activity against three bacterial strains using the disc method (Kirby-Bauer technique). The minimum inhibitory concentrations (MICs) of the compounds were then determined using the broth dilution technique. For antibiotic testing protocols, see: (a) Disk testing protocols: Phillips, I.; Williams, D., in Laboratory Methods in Antimicrobial Chemotherapy, Garrod, L. (ed.) Churchill Livingstone Press: Edinburgh, 1978, pp. 3-30. (b) MIC determination: Waterworth, P. M., in Laboratory Methods in Antimicrobial Chemotherapy, Garrod, L. (ed.) Churchill Livingstone Press: Edinburgh, 1978, pp. 31-40; Barry, A. L. The Antimicrobic Susceptibility Test: Principles and Practice, Lea and Febiger: Philadelphia (1976). (c) Standards: Lorian, V., Antibiotics in Laboratory Medicine (2nd. ed.), Williams and Wilkins: Baltimore, 1986.
FIG. 39A gives the zone diameters measured for the three bacterial strains. The zone diameters measured for the strains with known antibiotics are well within the accepted limits. […] It is worth noting that some testing protocols recommend overnight growth of the cultures, rather than the minimum time required to obtain good growth of the control. MIC values were tested for several of the control antibiotics using overnight growth, and the MIC values observed were 2-4× greater than those observed for 4-6 hour growth.
Minimal Inhibitory Concentration (MIC) testing. E. coli ATCC 25922 was grown in Mueller-Hinton broth (cation-adjusted, BBL Microbiology Systems) to an optical density of approx. 0.5 (absorbance read at 600 nm), then diluted to an OD600 of 0.1. Samples of antibiotic were prepared in Mueller-Hinton broth, typically a series of 2-fold dilutions from […]. […] The absorbance of each sample was read (1=600 nm), and MIC was considered to be the lowest antibiotic concentration at which the absorbance was less than 1% of the no-antibiotic control.

[8] = tested on: bacterial protein synthesis; conditions: cited from earlier work

UniProt P04618, sequence (P04618 whole entry): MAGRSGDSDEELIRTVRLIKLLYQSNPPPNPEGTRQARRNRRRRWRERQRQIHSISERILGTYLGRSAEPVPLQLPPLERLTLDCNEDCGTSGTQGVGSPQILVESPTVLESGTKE

In the case of wt-RRE-II, the Kd [1] is reported as 0.215 µM.
For CO[C@H]1O[C@H](CNCc2ccccc2)[C@@H](O)[C@H](OCc2ccccc2)[C@H]1OCc1ccccc1 [Compound 3], the “selectivity for dimethylphosphate over chloride” value [2] was 7 fold and the “chloride binding (in words)” value [3] was “lower chloride binding compared to 2, 4 and 5”.
With NC[C@H]1O[C@H](O[C@H]2[C@H](O)[C@@H](O)[C@H](N)C[C@@H]2N)[C@H](N)[C@@H](O)[C@@H]1O [Neamine] the “binding stoichiometry with sulfate (method of Job)” value [4] was 1:1 complex, the “binding to dimethylphosphate in water (in words)” value [5] was “no detectable binding” and the Kd ([6]; 150 mM NaCl, 10 mM HEPES (pH 7.4), 3.4 mM EDTA, read-out: dissociation constant, AS-wt) was 7.8 µM. The “specificity for AS-wt over negative controls (in words)” value ([6]; Example 5, HBS-buffer) was “moderate specificity for AS-wt over AS-U1495A”, the “specificity for AS-wt relative to AS-U1495A” value ([6]; KD(AS-U1495A)/KD(AS-wt)) was “approximately 4 fold” and the “antibacterial activity / MIC compared with neomycin B (in words)” value [7] was “inferior anti microbial activity”. For the same compound, the “effect on bacterial protein synthesis (in words)” value [8] was “induces miscoding during translation”.

Source: patent US6120997A, “Nucleic acid binders having an hydroxyamine motif” (The Scripps Research Institute, priority 1998, dated 2000)
